Measured values taken from paper PMC7932537, “Quantitative profiling of protease specificity” (PLoS Computational Biology, 2021).

Columns and labels:
[1] = target: T1, MMP-2 (Homo sapiens, UniProt P08253); experiment: K(obs) of individual phage substrates (set of 1369); type: biochemical; details: MMP2; individual phage substrate from the set of 1369 peptides; hyphen in the sequence marks the cleavage position
T1 sequence (P08253 110-660): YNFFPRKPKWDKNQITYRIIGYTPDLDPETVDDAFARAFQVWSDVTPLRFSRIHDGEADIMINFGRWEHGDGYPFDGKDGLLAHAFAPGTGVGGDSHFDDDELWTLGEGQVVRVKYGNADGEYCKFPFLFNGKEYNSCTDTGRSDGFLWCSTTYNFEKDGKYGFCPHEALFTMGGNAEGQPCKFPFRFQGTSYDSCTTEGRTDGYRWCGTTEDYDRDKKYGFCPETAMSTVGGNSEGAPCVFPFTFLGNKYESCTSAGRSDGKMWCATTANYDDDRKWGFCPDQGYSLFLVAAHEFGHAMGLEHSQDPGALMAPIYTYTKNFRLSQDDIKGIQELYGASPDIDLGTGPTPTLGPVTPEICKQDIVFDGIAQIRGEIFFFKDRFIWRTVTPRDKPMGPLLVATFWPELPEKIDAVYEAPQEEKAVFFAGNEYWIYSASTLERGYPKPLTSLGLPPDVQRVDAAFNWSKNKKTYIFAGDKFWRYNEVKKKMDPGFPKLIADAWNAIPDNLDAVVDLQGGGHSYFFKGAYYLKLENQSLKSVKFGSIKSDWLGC

[2] = target: MMP-9 (Homo sapiens, UniProt P14780); experiment: as above; type: biochemical; details: MMP9; individual phage substrate of the set of 1369 peptides; dash in sequence marks cleavage position
[3] = tested on: MMP-9; experiment: Substrate phage display with NGS: relative probability (RP) of P3-P1' tetramer clusters; type: biochemical, human; details: MMP9; RP of the substrate's P3-P1' tetramer, substrate phage display with NGS;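 note: ratio of tetramer probability after protease selection to that in naive phage library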

Chain of MMP-9 (Homo sapiens, UniProt P14780) (P14780 94-707): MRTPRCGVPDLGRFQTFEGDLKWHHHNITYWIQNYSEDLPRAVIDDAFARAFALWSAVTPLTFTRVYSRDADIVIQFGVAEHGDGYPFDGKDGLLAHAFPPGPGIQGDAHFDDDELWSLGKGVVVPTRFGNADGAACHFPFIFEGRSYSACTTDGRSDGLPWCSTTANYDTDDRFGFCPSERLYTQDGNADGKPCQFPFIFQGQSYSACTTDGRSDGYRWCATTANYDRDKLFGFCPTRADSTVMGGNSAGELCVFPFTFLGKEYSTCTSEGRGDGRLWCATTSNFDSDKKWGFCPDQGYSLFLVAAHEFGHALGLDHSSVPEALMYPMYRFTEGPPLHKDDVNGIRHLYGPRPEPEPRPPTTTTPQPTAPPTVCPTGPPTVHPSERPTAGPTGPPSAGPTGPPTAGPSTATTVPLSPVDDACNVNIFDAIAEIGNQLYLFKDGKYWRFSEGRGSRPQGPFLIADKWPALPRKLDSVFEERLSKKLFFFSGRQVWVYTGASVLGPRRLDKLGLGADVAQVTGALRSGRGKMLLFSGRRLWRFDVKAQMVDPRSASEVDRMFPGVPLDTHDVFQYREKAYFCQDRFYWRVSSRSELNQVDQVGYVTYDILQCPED

Kobs [1] | Kobs [2] | Substance | relative probability (RP) [3]
12792.1 M⁻¹ s⁻¹ | 4205.91 M⁻¹ s⁻¹ | SGVAW-LKHTA | 35.286
4335.13 M⁻¹ s⁻¹ | 7815.03 M⁻¹ s⁻¹ | SGVKG-MYSTA | 17.5008
2916.17 M⁻¹ s⁻¹ | 7015.91 M⁻¹ s⁻¹ | SGVLS-LQSTA | 27.5596
3253.29 M⁻¹ s⁻¹ | 12792.1 M⁻¹ s⁻¹ | SGVRA-IRQTA | 39.7636
3079.62 M⁻¹ s⁻¹ | 12792.1 M⁻¹ s⁻¹ | SGVRA-VYSTA | 25.1531
6131.32 M⁻¹ s⁻¹ | 12792.1 M⁻¹ s⁻¹ | SGVRG-LFTTA | 42.3063
12792.1 M⁻¹ s⁻¹ | 142.481 M⁻¹ s⁻¹ | SQLGL-LTASG | 4.41
12792.1 M⁻¹ s⁻¹ | 12792.1 M⁻¹ s⁻¹ | SRPRT-LTASG | 42.2705
12792.1 M⁻¹ s⁻¹ | 12792.1 M⁻¹ s⁻¹ | SRPVY-LTASG | 32.5397
12792.1 M⁻¹ s⁻¹ | 12792.1 M⁻¹ s⁻¹ | SSPLA-LTASG | 48.3776
12792.1 M⁻¹ s⁻¹ | 12792.1 M⁻¹ s⁻¹ | SSPLN-YTASG | 47.778
12792.1 M⁻¹ s⁻¹ | 1610.61 M⁻¹ s⁻¹ | SSVSN-LTASG | 31.0505
1071.29 M⁻¹ s⁻¹ | 6396.07 M⁻¹ s⁻¹ | TGPKL-ITASG | 25.2703
5461.43 M⁻¹ s⁻¹ | 2476.66 M⁻¹ s⁻¹ | TIPSW-STASG | 17.8128

Second part, the substance before the results:

Substance | Kobs [1] | Kobs [2] | relative probability (RP) [3]
SGVKW-LMSTA | 4335.13 M⁻¹ s⁻¹ | 12792.1 M⁻¹ s⁻¹ | 39.0108
SGVRD-LYFTA | 1030.73 M⁻¹ s⁻¹ | 2916.17 M⁻¹ s⁻¹ | 30.416
SGVRG-MHGTA | 1610.61 M⁻¹ s⁻¹ | 5667.28 M⁻¹ s⁻¹ | 38.9419
SGVRS-ITWTA | 261.974 M⁻¹ s⁻¹ | 3637.04 M⁻¹ s⁻¹ | 25.6748
SGVRW-STSTA | 1071.29 M⁻¹ s⁻¹ | 7015.91 M⁻¹ s⁻¹ | 18.5117
SGVWN-LMSTA | 3438.54 M⁻¹ s⁻¹ | 12792.1 M⁻¹ s⁻¹ | 38.922
SGWRA-YTGTA | 2476.66 M⁻¹ s⁻¹ | 9740.44 M⁻¹ s⁻¹ | 29.3104
SKPWK-LTASG | 1561.44 M⁻¹ s⁻¹ | 12792.1 M⁻¹ s⁻¹ | 43.1496
SLPLL-LTASG | 2996.69 M⁻¹ s⁻¹ | 12792.1 M⁻¹ s⁻¹ | 32.5638
SNPFK-YTASG | 0 M⁻¹ s⁻¹ | 5461.43 M⁻¹ s⁻¹ | 32.6605
SQPMA-YTASG | 12792.1 M⁻¹ s⁻¹ | 12792.1 M⁻¹ s⁻¹ | 49.7335
STIAH-YTASG | 12792.1 M⁻¹ s⁻¹ | 451.441 M⁻¹ s⁻¹ | 10.3185
SVLSK-LTASG | 12792.1 M⁻¹ s⁻¹ | 0 M⁻¹ s⁻¹ | 0.5605
SVPSA-ITASG | 12792.1 M⁻¹ s⁻¹ | 12792.1 M⁻¹ s⁻¹ | 45.9388
SVPST-LTASG | 12792.1 M⁻¹ s⁻¹ | 5269.78 M⁻¹ s⁻¹ | 36.3405
SYPRA-YTASG | 12792.1 M⁻¹ s⁻¹ | 12792.1 M⁻¹ s⁻¹ | 46.2238
TDIGE-ITASG | 6131.32 M⁻¹ s⁻¹ | 0 M⁻¹ s⁻¹ | 0.4519
